From patent EP0237516A1, “Benzyl-pyrimidine derivatives, process for their preparation and compositions containing them” (COMPAGNIE ROUSSELOT, Société Anonyme:, priority 1986, dated 1987)
Converted amounts (≈) assume the structure as drawn. Read-outs that look alike come from different tables or passages of the source.

Tests used:
[1] = test system: souches de Staphylococcus aureus résistant à la triméthoprime; experiment: MIC determination by serial dilution on Mueller-Hinton agar; assay type: cell-based; conditions: 18 h, compounds as isethionate, read-out: CMI
Staphylococcus aureus = experiment: MIC determination by serial dilution on Mueller-Hinton agar, trimethoprim-sensitive strains; assay type: cell-based; conditions: isethionates, read-out: CMI
Procedure: (§1) A cet effet, on a déterminé l'activité bactériostatique par la méthode des antibiogrammes par dilution en milieu gélosé (milieu de MUELLER-HINTON déshydraté) et par diffusion en milieu gélosé.
(§2) On a utilisé le composé à étudier selon une gamme de concentrations de 0,625 à 640 µg/ml (progression de raison 2) à partir de solutions-mères titrant 640 µg/ml à 1280 µg/ml selon la solubilité du composé, toutes les dilutions ultérieures ayant été réalisées dans un mélange méthanol/eau à 20%.
(§3) On a procédé sur milieu gélosé de MUELLER-HINTON déshydraté, par la méthode des dilutions sériées, les concentrations finales en composé à étudier s'échelonnant de 0,0625 à 32 ou 64 µg/ml.
(§4) A cet effet, on ensemence des boîtes de PETRI à l'aide d'un inoculateur multiple (inoculum de 5 x 10³ à 1 x 10⁴ unités formant colonies par spot d'inoculation) et on enregistre le résultat après 18 h à 37°C en ne tenant pas compte des micro-colonies qui se développent parfois ni de la présence de moins de 4 colonies d'aspect normal.

Serratia marcescens = experiment: as above; assay type: cell-based; conditions: 18 h; Serratia marcescens 56644; isethionates; read-out: CMI
Procedure: as §1, §2, §3, §4

Escherichia coli = experiment: as above; assay type: cell-based; conditions: isethionates, read-out: CMI
Procedure: as §1, §2, §3, §4

Listeria monocytogenes = experiment: as above; assay type: cell-based; conditions: isethionates; for MIC: 18 h, Listeria monocytogenes 485, TMP-sensitive, read-out: CMI
Procedure: as §1, §2, §3, §4

[2] = test system: 73 souches de bacilles à Gram -; experiment: Activity against Gram-negative bacilli, count of resistant strains; assay type: cell-based; conditions: number of resistant strains out of 73 Gram-negative bacilli strains
Description: (§5) L'action du composé de l'Exemple 21 a été étudiée comparativement à l'iséthionate de triméthoprime vis-à-vis de 73 souches de bacilles à Gram -. Des résultats trouvés, on a pu conclure que 33 souches étaient résistantes au sel de triméthoprime et 65 souches étaient résistantes au composé de l'Exemple 21.

[3] = Acute toxicity, intravenous; conditions: mouse, in vivo; mice, groups of 5, intravenous route; read-out: DL₅₀
Procedure: La toxicité aiguë des composés de l'invention a été déterminée sur des lots de 5 souris par voie intraveineuse. On a ainsi trouvé que la DL₅₀du composé de l'Exemple 9, selon cette voie d'administration, est de 157,4 mg/kg.

[4] = test system: souches de Staphylococcus aureus résistant à la triméthoprime; experiment: MIC determination by serial dilution on Mueller-Hinton agar; assay type: cell-based; conditions: 18 h, from hospitalised patients, compounds as free base, read-out: CMI
Procedure: as §1, §2, §3, §4
Les composés sous forme basique, des Exemples 1 et 4 ont été étudiés comparativement à la triméthoprime (TMP) à l'égard de 4 souches provenant de malades hospitalisés.
A cet effet, on a solubilisé les composés à étudier sous forme basique dans un mélange comprenant 9 ml d'eau distillée, 1 ml de diméthylformamide et quelques gouttes d'acide iséthionique.

[5] = test system: souches de Staphylococcus aureus résistant à la triméthoprime; experiment: Bacteriostatic activity by disc diffusion on Mueller-Hinton agar; assay type: cell-based; conditions: 5 µg per disc, free base, read-out: Diamètre d'inhibition
Procedure: On utilise à cet effet le milieu gélosé de MUELLER-HINTON que l'on ensemence par inondation à partir d'une suspension bactérienne titrant 5 x 10⁶ à 1 x 10⁷ unités formant colonies par ml. On imprègne les disques (disque de 6 mm de diamètre de SCHLEICHER et SCHULL) avec 20 µl d'une solution de chaque composé à étudier de façon à obtenir une charge de 5 µg par disque. A titre de contrôle lors de chaque manipulation, on charge également un disque avec 5 µg de triméthoprime. On néglige également dans ce test les microcolonies qui peuvent apparaître à l'intérieur des zones d'inhibition.
On a obtenu les résultats suivants exprimés en mm d'inhibition, avec des composés de l'invention sous forme basique comparativement à la triméthoprime. Ces résultats ont été enregistrés vis-à-vis de souches de Staphylococcus aureus résistant à la triméthoprime.

bacilles à Gram - = experiment: Activity in association with sulfamethoxazole; assay type: cell-based
Description: as §5
Par contre, si on associe chacun de ces composés au sulfaméthoxazole, le spectre d'activité de l'association composé de l'Exemple 21/-sulfaméthoxazole est similaire à celui de l'association de triméthoprime/ sulfaméthoxazole.

[6] = 18 h, Staphylococcus aureus 18839, TMP-sensitive
[7] = ATCC6338, 18 h, Staphylococcus aureus ATCC 6338, TMP-sensitive
[8] = ATCC25922, 18 h, Escherichia coli ATCC 25922
[9] = Listeria monocytogenes 378, TMP-sensitive
[10] = Listeria monocytogenes 5921, TMP-sensitive
[11] = Listeria monocytogenes 6777, TMP-sensitive
[12] = ATCC25923, 18 h, Staphylococcus aureus ATCC 25923, TMP-sensitive
[13] = strain No. 23543, TMP-resistant
[14] = strain No. 33274, TMP-resistant
[15] = strain No. 40314, TMP-resistant
[16] = strain No. 57760, TMP-resistant

`COc1cc(Cc2cnc(N)nc2N)c(I)cc1OC1CCCC1` [Ex. 18, Iséthionate de diamino-2,4 (iodo-2 cyclopentyloxy-4 méthoxy-5 benzyl)-5 pyrimidine] showed an MIC ([1]; strain No. 82, TMP-resistant) of 2 mg/L (≈ 4.54 µM), an MIC ([1]; strain No. 87, TMP-resistant) of 2 mg/L (≈ 4.54 µM) and an MIC ([1]; strain No. 102, TMP-resistant) of 4 mg/L (≈ 9.09 µM). The MIC ([1]; strain No. 107, TMP-resistant) was 4 mg/L (≈ 9.09 µM).
For `COc1cc(Cc2cnc(N)nc2N)c(Br)cc1OC1CCCCC1` [Ex. 24, Iséthionate de diamino-2,4 (bromo-2 cyclohexyloxy-4 méthoxy-5 benzyl)-5 pyrimidine], the MIC ([1]; strain No. 82, TMP-resistant) was 0.5 mg/L (≈ 1.23 µM), the MIC ([1]; strain No. 87, TMP-resistant) was 1 mg/L (≈ 2.46 µM) and the MIC ([1]; strain No. 101, TMP-resistant) was 0.5 mg/L (≈ 1.23 µM). The MIC ([1]; strain No. 102, TMP-resistant) was 0.5 mg/L (≈ 1.23 µM), the MIC (Staphylococcus aureus; [6]) was 0.06 mg/L (≈ 0.147 µM) and the MIC (Staphylococcus aureus; [7]) was 0.06 mg/L (≈ 0.147 µM). For the same compound, the MIC (Serratia marcescens) was over 64 mg/L, the MIC (Escherichia coli; 18 h, Escherichia coli 33430) was over 64 mg/L and the MIC (Escherichia coli; [8]) was over 64 mg/L. For the same compound, the MIC (Listeria monocytogenes) was 0.06 mg/L (≈ 0.147 µM), the CMI (Listeria monocytogenes; [9]) was 0,06 µg/ml and the CMI (Listeria monocytogenes; [10]) was 0,06 µg/ml. For the same compound, the CMI (Listeria monocytogenes; [11]) was 0,06 µg/ml.
Compound `COc1cc(Cc2cnc(N)nc2N)cc(OC)c1OC` [Iséthionate de TMP, iséthionate de triméthoprime, reference compound] has an MIC ([1]; strain No. 82, TMP-resistant) of 16 mg/L (≈ 55.1 µM), an MIC ([1]; strain No. 87, TMP-resistant) of 8 mg/L (≈ 27.6 µM) and an MIC ([1]; strain No. 101, TMP-resistant) of 16 mg/L (≈ 55.1 µM). The MIC ([1]; strain No. 102, TMP-resistant) was 16 mg/L (≈ 55.1 µM), the MIC ([1]; strain No. 107, TMP-resistant) was 64 mg/L (≈ 220 µM) and the MIC ([1]; strain No. 109, TMP-resistant) was 8 mg/L (≈ 27.6 µM). The “souches résistantes” value [2] was 33 souches, the MIC (Staphylococcus aureus; [7]) was 0.06 mg/L (≈ 0.207 µM) and the MIC (Staphylococcus aureus; [12]) was 0.25 mg/L (≈ 0.861 µM). It also gave an MIC (Serratia marcescens) of 2 mg/L (≈ 6.89 µM), an MIC (Escherichia coli; 18 h, Escherichia coli 33430) of 8 mg/L (≈ 27.6 µM) and an MIC (Escherichia coli; [8]) of 4 mg/L (≈ 13.8 µM).
Work on `CCOc1cc(I)c(Cc2cnc(N)nc2N)cc1OCC` [Exemple 9, Lactobionate de diamino-2,4 (iodo-2 diéthoxy-4,5 benzyl)-5 pyrimidine] yielded an LD50 [3] of 157 mg/kg.
`COc1cc(Cc2cnc(N)nc2N)ccc1OC1CCCC1` [Composé X, reference compound] gave an MIC ([1]; strain No. 82, TMP-resistant) of 32 mg/L (≈ 102 µM), an MIC ([1]; strain No. 87, TMP-resistant) of 8 mg/L (≈ 25.4 µM) and an MIC ([1]; strain No. 101, TMP-resistant) of 32 mg/L (≈ 102 µM). It also gave an MIC ([1]; strain No. 102, TMP-resistant) of 32 mg/L (≈ 102 µM), an MIC (Staphylococcus aureus; [6]) of 0.5 mg/L (≈ 1.59 µM) and an MIC (Staphylococcus aureus; [7]) of 0.25 mg/L (≈ 0.795 µM). It also gave an MIC (Staphylococcus aureus; [12]) of 1 mg/L (≈ 3.18 µM), an MIC (Serratia marcescens) of 32 mg/L (≈ 102 µM) and an MIC (Escherichia coli; 18 h, Escherichia coli 33430) of over 64 mg/L. The MIC (Escherichia coli; [8]) was over 64 mg/L, the MIC (Listeria monocytogenes) was 0.25 mg/L (≈ 0.795 µM) and the CMI (Listeria monocytogenes; [9]) was 0,25 µg/ml.
In the case of `CCOc1cc(I)c(Cc2cnc(N)nc2N)cc1OC` [Ex. 1, diamino-2,4 (iodo-2 éthoxy-4 méthoxy-5 benzyl)-5 pyrimidine], the MIC [4, 13] is reported as 2 mg/L (≈ 5 µM), the MIC [4, 14] is reported as under 0.06 mg/L and the MIC [4, 15] is reported as 0.12 mg/L (≈ 0.3 µM). For the same compound, the MIC [4, 16] was 1 mg/L (≈ 2.5 µM), the zone of inhibition at 5 µg/disc [5, 13] was 19 mm and the zone of inhibition at 5 µg/disc [5, 14] was 32 mm. The zone of inhibition at 5 µg/disc [5, 15] was 32 mm and the zone of inhibition at 5 µg/disc [5, 16] was 24 mm.
Compound `COc1cc(Cc2cnc(N)nc2N)c(I)cc1OC1CCCC1` [Ex. 4, Diamino-2,4 (iodo-2 cyclopentyloxy-4 méthoxy-5 benzyl)-5 pyrimidine] has an MIC [4, 13] of 2 mg/L (≈ 4.54 µM), an MIC [4, 14] of 0.25 mg/L (≈ 0.568 µM) and an MIC [4, 15] of under 0.06 mg/L. It also gave an MIC [4, 16] of 2 mg/L (≈ 4.54 µM), a zone of inhibition at 5 µg/disc [5, 13] of 19 mm and a zone of inhibition at 5 µg/disc [5, 14] of 29 mm. The zone of inhibition at 5 µg/disc [5, 15] was 35 mm and the zone of inhibition at 5 µg/disc [5, 16] was 20 mm.
Work on `COc1cc(Cc2cnc(N)nc2N)c(Br)cc1OC1CCCC1` [Ex. 21, Iséthionate de diamino-2,4 (bromo-2 cyclopentyloxy-4 méthoxy-5 benzyl)-5 pyrimidine] yielded an MIC ([1]; strain No. 82, TMP-resistant) of 1 mg/L (≈ 2.54 µM), an MIC ([1]; strain No. 87, TMP-resistant) of 1 mg/L (≈ 2.54 µM) and an MIC ([1]; strain No. 101, TMP-resistant) of 2 mg/L (≈ 5.09 µM). For the same compound, the MIC ([1]; strain No. 102, TMP-resistant) was 1 mg/L (≈ 2.54 µM), the MIC ([1]; strain No. 107, TMP-resistant) was 4 mg/L (≈ 10.2 µM) and the MIC ([1]; strain No. 109, TMP-resistant) was 0.5 mg/L (≈ 1.27 µM). The “potentialisation du sulfaméthoxazole” value (bacilles à Gram -; compared with the trimethoprim salt) was “potentialise aussi bien le sulfaméthoxazole que ne le fait le sel de triméthoprime”, the “spectre d'activité de l'association” value (bacilles à Gram -; in association with sulfaméthoxazole, compared with the association triméthoprime/sulfaméthoxazole) was “similaire” and the “souches résistantes” value [2] was 65 souches. The MIC (Staphylococcus aureus; [7]) was 0.06 mg/L (≈ 0.153 µM), the MIC (Staphylococcus aureus; [12]) was 0.5 mg/L (≈ 1.27 µM) and the MIC (Serratia marcescens) was 16 mg/L (≈ 40.7 µM). The MIC (Escherichia coli; 18 h, Escherichia coli 33430) was 16 mg/L (≈ 40.7 µM), the MIC (Escherichia coli; [8]) was 32 mg/L (≈ 81.4 µM) and the MIC (Listeria monocytogenes) was 0.06 mg/L (≈ 0.153 µM). The CMI (Listeria monocytogenes; [9]) was 0,06 µg/ml, the CMI (Listeria monocytogenes; [10]) was 0,06 µg/ml and the CMI (Listeria monocytogenes; [11]) was 0,06 µg/ml.
In the case of `COc1cc(Cc2cnc(N)nc2N)cc(OC)c1OC` [TMP, diamino-2,4 (triméthoxy-3,4,5 benzyl)-5 pyrimidine, reference compound], the MIC [4, 13] is reported as 16 mg/L (≈ 55.1 µM), the MIC [4, 14] is reported as over 64 mg/L and the MIC [4, 15] is reported as 64 mg/L (≈ 220 µM). It also gave an MIC [4, 16] of over 64 mg/L, a zone of inhibition at 5 µg/disc [5, 13] of 0 mm and a zone of inhibition at 5 µg/disc [5, 14] of 0 mm. It also gave a zone of inhibition at 5 µg/disc [5, 15] of 0 mm and a zone of inhibition at 5 µg/disc [5, 16] of 0 mm.
